Assays:
wtEGFR = molecular target: T1, wtEGFR (Homo sapiens, UniProt P00533); assay: HotSpot radiometric kinase activity assay, wtEGFR; settings: biochemical activity, 4 nM wtEGFR, 10 μM 33P-ATP, 2 hours, read-out: EGFR WT IC50
T1 construct: purchased Invitrogen PR7295B
Protocol: (§1) The purpose of the wtERBB2, ERBB2-A775_G776insYVMA (ERBB2YVMA), wtEGFR biochemical assay was to evaluate the inhibition (% inhibition and IC50 values) of the small molecule inhibitors by using the “HotSpot” radiometric kinase activity assay. HotSpot assays monitor the production of kinase substrate by the radioactive gamma phosphate of adenosine triphosphate (33P-ATP) during biochemical reactions. HotSpot assays was performed in steps upon completion of the kinase reaction: deposition of a reaction mixture aliquot onto P81 ion exchange paper, extensive washing of the aforementioned P81 paper using phosphoric acid to remove unbound radiolabeled 33P-ATP from the P81 paper, and finally visualization and quantification of the dried P81 paper utilizing a phosphoimager. […] Typical reaction solutions (10 μL, final reaction volume) contained the following buffer conditions: 20 mM Hepes (pH 7.5), 10 mM MgCl2, 1 mM EGTA, 0.01% Brij35, 0.02 mg/mL BSA, 0.1 mM Na3VO4, 2 mM DTT, 1% DMSO. The assay was primed by preparing a fresh 0.2 mg/mL solution of pEY (Sigma Cat: P7244) substrate in the reaction buffer and supplementing that solution with […] of MnCl2 as substrate cofactor (Sigma Cat: M9522). The kinase of interest was then added to the solution at the appropriate concentration (30 nM wtERBB2 from, or 20 nM ERBB2YVMA, or 4 nM wtEGFR) and gently mixed prior to delivery of compound in 100% DMSO by acoustic dispensing (Beckman Echo550). Compound, Kinase, and substrate were allowed to incubate for 20 min at room temperature prior to the initiation of the reaction by addition of 33P-ATP (PerkinElmer Cat: NEG602, final conc 10 μM). […] IC50 determinations were made from a plot of kinase activity as a function of inhibitor concentration fit to the 4-parameter IC50 equation with the enzyme concentration held constant using GraphPad Prism (San Diego).

BaF3_HER2WT cells = BaF3_HER2WT cells (Homo sapiens, UniProt P04626); assay: Cell growth inhibition assay (CellTiterGlo), BaF3_HER2WT; type: cell-based; settings: 3-day treatment, CellTiterGlo, read-out: Cell growth inhibition activity, HER2 WT
Sequence of BaF3_HER2WT cells (P04626 whole entry, change not shown): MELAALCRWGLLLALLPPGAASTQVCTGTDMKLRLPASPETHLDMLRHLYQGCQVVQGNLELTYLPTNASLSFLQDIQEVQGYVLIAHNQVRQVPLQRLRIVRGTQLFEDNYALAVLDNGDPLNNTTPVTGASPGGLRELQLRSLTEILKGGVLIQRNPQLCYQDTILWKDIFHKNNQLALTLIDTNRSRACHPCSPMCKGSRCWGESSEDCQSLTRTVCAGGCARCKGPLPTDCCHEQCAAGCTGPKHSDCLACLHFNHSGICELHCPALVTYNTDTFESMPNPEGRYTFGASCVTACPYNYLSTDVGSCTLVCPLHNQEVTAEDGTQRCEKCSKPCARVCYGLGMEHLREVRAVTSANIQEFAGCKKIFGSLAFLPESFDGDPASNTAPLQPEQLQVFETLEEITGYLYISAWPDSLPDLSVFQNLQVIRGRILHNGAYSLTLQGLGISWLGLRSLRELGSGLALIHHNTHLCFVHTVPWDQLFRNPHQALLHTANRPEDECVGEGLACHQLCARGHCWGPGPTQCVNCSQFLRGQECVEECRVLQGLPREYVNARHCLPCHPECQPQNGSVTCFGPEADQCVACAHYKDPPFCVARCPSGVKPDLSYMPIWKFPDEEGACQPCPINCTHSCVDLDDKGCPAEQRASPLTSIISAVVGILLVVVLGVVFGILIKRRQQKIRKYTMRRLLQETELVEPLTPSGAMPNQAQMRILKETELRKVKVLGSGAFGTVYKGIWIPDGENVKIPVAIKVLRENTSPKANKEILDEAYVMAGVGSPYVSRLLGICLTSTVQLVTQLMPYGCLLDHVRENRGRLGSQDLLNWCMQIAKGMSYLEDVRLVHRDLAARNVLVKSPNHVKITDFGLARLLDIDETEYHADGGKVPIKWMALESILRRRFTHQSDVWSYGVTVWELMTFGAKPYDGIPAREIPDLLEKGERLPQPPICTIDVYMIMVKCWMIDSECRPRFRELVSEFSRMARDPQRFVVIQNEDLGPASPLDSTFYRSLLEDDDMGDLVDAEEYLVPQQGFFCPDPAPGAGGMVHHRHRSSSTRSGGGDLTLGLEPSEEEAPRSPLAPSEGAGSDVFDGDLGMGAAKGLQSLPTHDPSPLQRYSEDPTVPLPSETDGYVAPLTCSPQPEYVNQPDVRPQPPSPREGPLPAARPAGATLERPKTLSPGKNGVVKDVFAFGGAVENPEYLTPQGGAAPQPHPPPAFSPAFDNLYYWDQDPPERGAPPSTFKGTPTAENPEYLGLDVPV

BaF3_EGFRWT cells = BaF3_EGFRWT cells (Homo sapiens, UniProt P00533); assay: Cell growth inhibition assay (CellTiterGlo), BaF3_EGFRWT; type: cell-based; settings: 3-day treatment, CellTiterGlo, read-out: Cell growth inhibition activity, EGFR WT
[1] = molecular target: T2, ERBB2-A775_G776insYVMA (ERBB2YVMA) (Homo sapiens, UniProt P04626, INS775YVMA); assay: HotSpot radiometric kinase activity assay, ERBB2YVMA; settings: biochemical activity, 20 nM ERBB2YVMA, 10 μM 33P-ATP, 2 hours, read-out: HER2 - YVMA IC50
T2 construct: purchased SignalChem E27-13BG
T2 sequence (P04626 with tags, fused parts or gaps INS775YVMA limits assumed): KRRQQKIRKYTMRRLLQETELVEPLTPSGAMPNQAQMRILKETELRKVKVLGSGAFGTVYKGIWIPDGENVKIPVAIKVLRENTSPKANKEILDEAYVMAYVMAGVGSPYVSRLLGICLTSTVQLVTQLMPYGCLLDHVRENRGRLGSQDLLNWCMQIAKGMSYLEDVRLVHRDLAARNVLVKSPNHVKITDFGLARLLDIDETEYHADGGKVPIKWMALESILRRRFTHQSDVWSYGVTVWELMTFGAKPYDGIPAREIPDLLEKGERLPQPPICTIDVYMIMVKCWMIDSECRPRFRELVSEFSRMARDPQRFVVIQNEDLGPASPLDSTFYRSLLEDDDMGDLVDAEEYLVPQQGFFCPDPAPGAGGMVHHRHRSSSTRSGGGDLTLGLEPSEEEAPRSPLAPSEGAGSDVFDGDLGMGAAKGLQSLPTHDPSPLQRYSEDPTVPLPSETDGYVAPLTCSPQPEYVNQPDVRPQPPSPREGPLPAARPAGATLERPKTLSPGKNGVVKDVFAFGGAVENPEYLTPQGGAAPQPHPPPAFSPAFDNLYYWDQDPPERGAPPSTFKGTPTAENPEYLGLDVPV
Protocol: as §1

BaF3_HER2YVMA cells = BaF3_HER2YVMA cells (Homo sapiens, UniProt P04626, DUP772-775, cells depend on it); assay: Cell growth inhibition assay (CellTiterGlo), BaF3_HER2YVMA; type: cell-based; settings: 3-day treatment, CellTiterGlo, read-out: Cell growth inhibition activity, HER2 - YVMA
Sequence of BaF3_HER2YVMA cells (P04626 with tags, fused parts or gaps DUP772-775): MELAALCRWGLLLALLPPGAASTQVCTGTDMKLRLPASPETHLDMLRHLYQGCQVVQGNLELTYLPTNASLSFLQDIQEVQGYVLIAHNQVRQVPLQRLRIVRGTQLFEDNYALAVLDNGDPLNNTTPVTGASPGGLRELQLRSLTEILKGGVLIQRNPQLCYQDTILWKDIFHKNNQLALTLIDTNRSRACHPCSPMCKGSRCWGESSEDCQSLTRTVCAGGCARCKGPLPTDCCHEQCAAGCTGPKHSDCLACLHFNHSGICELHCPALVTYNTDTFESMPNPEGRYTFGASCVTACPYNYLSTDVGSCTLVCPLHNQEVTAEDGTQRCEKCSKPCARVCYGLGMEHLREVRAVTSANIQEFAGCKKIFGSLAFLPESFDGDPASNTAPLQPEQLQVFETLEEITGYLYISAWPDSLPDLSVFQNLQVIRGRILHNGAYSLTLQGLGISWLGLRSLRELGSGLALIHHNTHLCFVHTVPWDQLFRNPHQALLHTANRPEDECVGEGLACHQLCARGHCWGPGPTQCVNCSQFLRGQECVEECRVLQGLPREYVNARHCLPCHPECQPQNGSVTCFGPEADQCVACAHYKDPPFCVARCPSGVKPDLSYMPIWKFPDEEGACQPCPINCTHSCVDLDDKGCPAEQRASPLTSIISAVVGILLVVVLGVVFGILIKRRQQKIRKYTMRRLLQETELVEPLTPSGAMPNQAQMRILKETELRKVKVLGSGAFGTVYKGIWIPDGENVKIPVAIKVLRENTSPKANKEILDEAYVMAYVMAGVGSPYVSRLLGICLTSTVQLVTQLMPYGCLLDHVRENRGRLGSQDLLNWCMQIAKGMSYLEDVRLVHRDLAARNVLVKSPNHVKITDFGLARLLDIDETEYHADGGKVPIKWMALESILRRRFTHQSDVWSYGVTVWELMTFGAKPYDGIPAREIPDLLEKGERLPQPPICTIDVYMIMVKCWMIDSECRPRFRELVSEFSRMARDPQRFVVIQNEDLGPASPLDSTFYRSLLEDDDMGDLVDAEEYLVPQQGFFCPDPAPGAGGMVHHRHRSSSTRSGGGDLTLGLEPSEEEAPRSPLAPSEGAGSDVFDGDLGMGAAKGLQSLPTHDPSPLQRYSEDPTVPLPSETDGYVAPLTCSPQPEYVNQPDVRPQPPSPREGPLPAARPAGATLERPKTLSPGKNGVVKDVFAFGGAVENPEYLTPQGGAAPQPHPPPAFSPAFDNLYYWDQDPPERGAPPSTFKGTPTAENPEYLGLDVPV

T1 sequence (P00533 25-1210): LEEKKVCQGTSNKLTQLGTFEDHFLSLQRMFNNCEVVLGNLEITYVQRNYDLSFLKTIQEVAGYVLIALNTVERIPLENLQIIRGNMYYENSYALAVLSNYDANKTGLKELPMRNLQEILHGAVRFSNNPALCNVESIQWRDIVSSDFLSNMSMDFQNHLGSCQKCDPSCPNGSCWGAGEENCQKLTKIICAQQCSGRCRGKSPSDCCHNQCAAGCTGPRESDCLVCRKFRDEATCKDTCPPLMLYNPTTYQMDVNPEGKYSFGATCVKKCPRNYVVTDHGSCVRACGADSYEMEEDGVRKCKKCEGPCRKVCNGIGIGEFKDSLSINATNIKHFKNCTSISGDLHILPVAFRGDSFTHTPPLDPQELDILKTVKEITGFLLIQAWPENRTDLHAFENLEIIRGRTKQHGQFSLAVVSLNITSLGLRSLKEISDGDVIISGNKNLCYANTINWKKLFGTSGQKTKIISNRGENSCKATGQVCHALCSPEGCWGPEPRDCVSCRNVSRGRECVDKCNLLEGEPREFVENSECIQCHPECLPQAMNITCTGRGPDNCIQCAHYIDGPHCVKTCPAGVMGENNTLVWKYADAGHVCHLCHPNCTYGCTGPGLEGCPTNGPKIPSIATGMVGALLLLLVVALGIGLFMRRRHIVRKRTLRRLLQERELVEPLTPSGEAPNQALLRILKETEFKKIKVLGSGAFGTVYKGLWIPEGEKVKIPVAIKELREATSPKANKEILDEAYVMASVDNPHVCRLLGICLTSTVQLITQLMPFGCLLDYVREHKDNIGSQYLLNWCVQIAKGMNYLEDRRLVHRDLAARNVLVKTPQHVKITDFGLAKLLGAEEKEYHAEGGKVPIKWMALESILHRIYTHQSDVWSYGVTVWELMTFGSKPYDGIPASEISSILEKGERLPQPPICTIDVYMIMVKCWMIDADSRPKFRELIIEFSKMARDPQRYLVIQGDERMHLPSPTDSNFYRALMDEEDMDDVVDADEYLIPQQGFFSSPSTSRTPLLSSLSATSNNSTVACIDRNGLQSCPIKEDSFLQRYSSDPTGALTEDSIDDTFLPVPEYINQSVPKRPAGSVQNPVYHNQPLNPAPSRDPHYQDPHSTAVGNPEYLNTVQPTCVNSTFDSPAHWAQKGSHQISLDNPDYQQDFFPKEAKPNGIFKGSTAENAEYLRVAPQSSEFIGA

Structure (SMILES) | IC50 (wtEGFR) | GI50 (BaF3_HER2WT cells) | GI50 (BaF3_EGFRWT cells) | IC50 [1] | GI50 (BaF3_HER2YVMA cells)
C=CC(=O)NC1CCN(C(=O)c2ccn3ncnc(Nc4ccc(Oc5ccn6ncnc6c5)c(C)c4)c23)CC1 [Example 5, N-(1-(4-((4-([1,2,4]triazolo[1,5-a]pyridin-7-yloxy)-3-methylphenyl)amino)pyrrolo[2,1-f][1,2,4]triazine-5-carbonyl)piperidin-4-yl)acrylamide] | 1500 to 5000 nM | < 200 nM | 1500 to 5000 nM | 200 to 500 nM | 200 to 500 nM
C=CC(=O)N1CCC(c2ccn3ncnc(Nc4ccc(Oc5ccn6ncnc6c5)c(C)c4)c23)C1 (stereo not shown) [Example 11, 1-(3-(4-((4-([1,2,4]triazolo[1,5-a]pyridin-7-yloxy)-3-methylphenyl)amino)pyrrolo[2,1-f][1,2,4]triazin-5-yl)pyrrolidin-1-yl)prop-2-en-1-one] | 500 to 1500 nM | < 200 nM | 1500 to 5000 nM | < 200 nM | < 200 nM
C=CC(=O)NCCn1cc(-c2ccn3ncnc(Nc4ccc(Oc5ccn6ncnc6c5)c(C)c4)c23)cn1 [Example 13, N-(2-(4-(4-((4-([1,2,4]triazolo[1,5-a]pyridin-7-yloxy)-3-methylphenyl)amino)pyrrolo[2,1-f][1,2,4]triazin-5-yl)-1H-pyrazol-1-yl)ethyl)acrylamide] | 1500 to 5000 nM | < 200 nM | 1500 to 5000 nM | < 200 nM | 200 to 500 nM
C=CC(=O)NC1CN(c2ccn3ncnc(Nc4ccc(Oc5ccn6ncnc6c5)c(C)c4)c23)C1 [Example 14, N-(1-(4-((4-([1,2,4]triazolo[1,5-a]pyridin-7-yloxy)-3-methylphenyl)amino)pyrrolo[2,1-f][1,2,4]triazin-5-yl)azetidin-3-yl)acrylamide] | 200 to 500 nM | < 200 nM | 1500 to 5000 nM | < 200 nM | < 200 nM
C=CC(=O)N1CC2(C1)CN(c1ccn3ncnc(Nc4ccc(Oc5ccn6ncnc6c5)c(C)c4)c13)C2 [Example 16, 1-(6-(4-((4-([1,2,4]triazolo[1,5-a]pyridin-7-yloxy)-3-methylphenyl)amino)pyrrolo[2,1-f][1,2,4]triazin-5-yl)-2,6-diazaspiro[3.3]heptan-2-yl)prop-2-en-1-one] | 1500 to 5000 nM | 200 to 500 nM | 1500 to 5000 nM | < 200 nM | 500 to 1500 nM
C=C(F)C(=O)NC1CN(c2ccn3ncnc(Nc4ccc(Oc5ccn6ncnc6c5)c(C)c4)c23)C1 [Example 18, N-(1-(4-((4-([1,2,4]triazolo[1,5-a]pyridin-7-yloxy)-3-methylphenyl)amino)pyrrolo[2,1-f][1,2,4]triazin-5-yl)azetidin-3-yl)-2-fluoroacrylamide] | 1500 to 5000 nM | 200 to 500 nM | 1500 to 5000 nM | < 200 nM | 500 to 1500 nM
C=C(F)C(=O)N1CC(n2cc(-c3ccn4ncnc(Nc5ccc(Oc6ccn7ncnc7c6)c(C)c5)c34)cn2)C1 [Example 19, 1-(3-(4-(4-((4-([1,2,4]triazolo[1,5-a]pyridin-7-yloxy)-3-methylphenyl)amino)pyrrolo[2,1-f][1,2,4]triazin-5-yl)-1H-pyrazol-1-yl)azetidin-1-yl)-2-fluoroprop-2-en-1-one] | 1500 to 5000 nM | 200 to 500 nM | 1500 to 5000 nM | 200 to 500 nM | 500 to 1500 nM
Cc1cc(Nc2ncnn3ccc(N4CCN(C(=O)/C=C/CN(C)C)CC4)c23)ccc1Oc1ccn2ncnc2c1 [Example 22, (E)-1-(4-(4-((4-([1,2,4]triazolo[1,5-a]pyridin-7-yloxy)-3-methylphenyl)amino)pyrrolo[2,1-f][1,2,4]triazin-5-yl)piperazin-1-yl)-4-(dimethylamino)but-2-en-1-one] | 500 to 1500 nM | < 200 nM | 1500 to 5000 nM | < 200 nM | < 200 nM
Cc1cc(Nc2ncnn3ccc(C4CCN(C(=O)CCCN(C)C)CC4)c23)ccc1Oc1ccn2ncnc2c1 [Example 23, 1-(4-(4-((4-([1,2,4]triazolo[1,5-a]pyridin-7-yloxy)-3-methylphenyl)amino)pyrrolo[2,1-f][1,2,4]triazin-5-yl)piperidin-1-yl)-4-(dimethylamino)butan-1-one] | 500 to 1500 nM | 500 to 1500 nM | 1500 to 5000 nM | < 200 nM | 1500 to 5000 nM
Cc1cc(Nc2ncnn3ccc(C4CN(C(=O)/C=C/CN)C4)c23)ccc1Oc1ccn2ncnc2c1 [Example 87, (E)-1-(3-(4-((4-([1,2,4]triazolo[1,5-a]pyridin-7-yloxy)-3-methylphenyl)amino)pyrrolo[2,1-f][1,2,4]triazin-5-yl)azetidin-1-yl)-4-aminobut-2-en-1-one] | 200 to 500 nM | 1500 to 5000 nM | 1500 to 5000 nM | < 200 nM | 1500 to 5000 nM
Cc1cc(Nc2ncnn3ccc(C4CN(C(=O)/C=C/CN5CC(F)(F)C5)C4)c23)ccc1Oc1ccn2ncnc2c1 [Example 91, (E)-1-(3-(4-((4-([1,2,4]triazolo[1,5-a]pyridin-7-yloxy)-3-methylphenyl)amino)pyrrolo[2,1-f][1,2,4]-triazin-5-yl)azetidin-1-yl)-4-(3,3-difluoroazetidin-1-yl)but-2-en-1-one] | 500 to 1500 nM | < 200 nM | 1500 to 5000 nM | < 200 nM | 500 to 1500 nM
Cc1cc(Nc2ncnn3ccc(C4CCCN(C(=O)/C=C/CN(C)C)CC4)c23)ccc1Oc1ccn2ncnc2c1 (stereo not shown) [Example 93, (E)-1-(4-(4-((4-([1,2,4]triazolo[1,5-a]pyridin-7-yloxy)-3-methylphenyl)amino)pyrrolo[2,1-f][1,2,4]triazin-5-yl)azepan-1-yl)-4-(dimethylamino)but-2-en-1-one] | 200 to 500 nM | < 200 nM | 1500 to 5000 nM | < 200 nM | < 200 nM
Cc1cc(Nc2ncnn3ccc(C4CC5(C4)CN(C(=O)/C=C/CN(C)C)C5)c23)ccc1Oc1ccn2ncnc2c1 [Example 95, (E)-1-(6-(4-((4-([1,2,4]triazolo[1,5-a]pyridin-7-yloxy)-3-methylphenyl)amino)pyrrolo[2,1-f][1,2,4]triazin-5-yl)-2-azaspiro[3.3]heptan-2-yl)-4-(dimethylamino)but-2-en-1-one] | 200 to 500 nM | 200 to 500 nM | 1500 to 5000 nM | < 200 nM | 500 to 1500 nM
Cc1cc(Nc2ncnn3ccc(C4CCCN(C(=O)/C=C/CN(C)C)C4)c23)ccc1Oc1ccn2ncnc2c1 (stereo not shown) [Example 96, (E)-1-(3-(4-((4-([1,2,4]triazolo[1,5-a]pyridin-7-yloxy)-3-methylphenyl)amino)-pyrrolo-[2,1-f][1,2,4]-triazin-5-yl)piperidin-1-yl)-4-(dimethylamino)but-2-en-1-one] | 500 to 1500 nM | < 200 nM | 1500 to 5000 nM | < 200 nM | 500 to 1500 nM
Cc1cc(Nc2ncnn3ccc(C4CN(C(=O)/C=C/CN5CCC5)C4)c23)ccc1Oc1ccn2ncnc2c1 [Example 102, (E)-1-(3-(4-((4-([1,2,4]triazolo[1,5-a]pyridin-7-yloxy)-3-methylphenyl)amino)pyrrolo[2,1-f][1,2,4]triazin-5-yl)azetidin-1-yl)-4-(azetidin-1-yl)but-2-en-1-one] | 1500 to 5000 nM | 500 to 1500 nM | 1500 to 5000 nM | < 200 nM | 1500 to 5000 nM
Cc1cc(Nc2ncnn3ccc(-c4cnn(CCNC(=O)/C=C/CN(C)C)c4)c23)ccc1Oc1ccn2ncnc2c1 [Example 103, (E)-N-(2-(4-(4-((4-([1,2,4]triazolo[1,5-a]pyridin-7-yloxy)-3-methylphenyl)amino)pyrrolo[2,1-f][1,2,4]triazin-5-yl)-1H-pyrazol-1-yl)ethyl)-4-(dimethylamino)but-2-enamide] | 1500 to 5000 nM | 1500 to 5000 nM | 1500 to 5000 nM | 200 to 500 nM | 1500 to 5000 nM
C=CC(=O)N1CCC2(C1)CN(c1ccn3ncnc(Nc4ccc(Oc5ccn6ncnc6c5)c(C)c4)c13)C2 [Example 155, 1-(2-{4-[(3-methyl-4-{[1,2,4]triazolo[1,5-a]pyridin-7-yloxy}phenyl)amino]pyrrolo[2,1-f][1,2,4]triazin-5-yl}-2,6-diazaspiro[3.4]octan-6-yl)prop-2-en-1-one] | 1500 to 5000 nM | < 200 nM | 1500 to 5000 nM | < 200 nM | 200 to 500 nM
